Series [1] can be described thus: Partition coefficient (logP). As to conditions: octanol/water. The format is physicochemical.
For series [2], the system named is Salmonella typhimurium. The series can be described thus: Ames test averaged in revertants/plate with Salmonella Typhimurium TA1538 at 0.50 mg/plate. The format is functional, Salmonella enterica subsp. enterica serovar Typhimurium. On the technique in general: The Ames test uses bacterial strains that need an amino acid and regain growth without it when mutated back.

In series [3] the test system is Salmonella typhimurium. The experiment in a line: Ames test averaged in revertants/plate with Salmonella Typhimurium TA1538 at 1.0 mg/plate. The format is functional, Salmonella enterica subsp. enterica serovar Typhimurium.
Series [4] has as its system Salmonella typhimurium. The series can be described thus: Ames test averaged in revertants/plate with Salmonella Typhimurium TA98 at 0.13 mg/plate. The format is functional, Salmonella enterica subsp. enterica serovar Typhimurium.
Series [5] concerns Salmonella typhimurium. The experiment in a line: Ames test averaged in revertants/plate with Salmonella Typhimurium TA98 at 0.25 mg/plate. The format is functional, Salmonella enterica subsp. enterica serovar Typhimurium.
The test system of series [6] is Salmonella typhimurium. The experiment in a line: Ames test averaged in revertants/plate with Salmonella Typhimurium TA98 at 0.50 mg/plate. The format is functional, Salmonella enterica subsp. enterica serovar Typhimurium.
The test system of series [7] is Salmonella typhimurium. The experiment in a line: Ames test averaged in revertants/plate with Salmonella Typhimurium TA1538 at 0.13 mg/plate. The format is functional, Salmonella enterica subsp. enterica serovar Typhimurium.
For series [8], the system named is Salmonella typhimurium. The experiment in a line: Ames test averaged in revertants/plate with Salmonella Typhimurium TA1538 at 0.25 mg/plate. The format is functional, Salmonella enterica subsp. enterica serovar Typhimurium.
Series [9] deals with Salmonella typhimurium. The experiment in a line: Ames test averaged in revertants/plate with Salmonella Typhimurium TA98 at 1.0 mg/plate. The format is functional, Salmonella enterica subsp. enterica serovar Typhimurium.
Series [10] deals with Salmonella typhimurium. The series can be described thus: Ames test averaged in reverts/plate with Salmonella Typhimurium TA1538 at 0.13 mg/plate. The format is functional, Salmonella enterica subsp. enterica serovar Typhimurium.
Series [11] relates to Salmonella typhimurium. The series can be described thus: Ames test averaged in revertants/plate with Salmonella Typhimurium TA1538 at 2.5 mg/plate. The format is functional, Salmonella enterica subsp. enterica serovar Typhimurium.
The test system of series [12] is Salmonella typhimurium. The series can be described thus: Ames test averaged in revertants/plate with Salmonella Typhimurium TA1538 at 5 mg/plate. The format is functional, Salmonella enterica subsp. enterica serovar Typhimurium.
Series [13] deals with Salmonella typhimurium. The experiment in a line: Ames test averaged in revertants/plate with Salmonella Typhimurium TA98 at 0.1 mg/plate. The format is functional, Salmonella enterica subsp. enterica serovar Typhimurium.
The subject of series [14] is Salmonella typhimurium. The series can be described thus: Ames test averaged in revertants/plate with Salmonella Typhimurium TA98 at 0.5 mg/plate. The format is functional, Salmonella enterica subsp. enterica serovar Typhimurium.
Series [15] deals with Salmonella typhimurium. The experiment in a line: Ames test averaged in revertants/plate with Salmonella Typhimurium TA98 at 2.5 mg/plate. The format is functional, Salmonella enterica subsp. enterica serovar Typhimurium.
For series [16], the system named is Salmonella typhimurium. The series can be described thus: Ames test averaged in revertants/plate with Salmonella Typhimurium TA1538 at 0.1 mg/plate. The format is functional, Salmonella enterica subsp. enterica serovar Typhimurium.
Series [17] has as its system Salmonella typhimurium. The series can be described thus: Ames test averaged in revertants/plate with Salmonella Typhimurium TA1538 at 0.5 mg/plate. The format is functional, Salmonella enterica subsp. enterica serovar Typhimurium.
In series [18] the test system is Salmonella typhimurium. The experiment in a line: Ames test averaged in revertants/plate with Salmonella Typhimurium TA98 at 5 mg/plate. The format is functional, Salmonella enterica subsp. enterica serovar Typhimurium.

In series [1], `CC(=O)Nc1ccc2c(c1)S(=O)(=O)c1ccc(C)cc1C2=O` displayed a logP of 2.76. Also, the Revertants/plate turned out to be 0 in the series with Salmonella typhimurium [2]; 5 in the series on Salmonella typhimurium [3]; 1 in the series with Salmonella typhimurium [4]; 0 in the series with Salmonella typhimurium [5]; 0 in the series on Salmonella typhimurium [6]; 0 in the series with Salmonella typhimurium [7]. Further, the Revertants/plate with Salmonella typhimurium [8] was found to be 2; with Salmonella typhimurium [9], 8.

For the compound `CC(=O)Nc1ccc2c(c1)[nH]c1ccccc12`, the lipophilicity (logP) in series [1] was 3.02. The Revertants/plate in the series with Salmonella typhimurium [2] is given as 699; in the series with Salmonella typhimurium [3], 775; in the series on Salmonella typhimurium [4], 725; with Salmonella typhimurium [5], 732; in the series with Salmonella typhimurium [6], 468; in the series with Salmonella typhimurium [7] it was 679. The Revertants/plate with Salmonella typhimurium [8] was determined as 762; in the series on Salmonella typhimurium [9], 456.

Compound `CCc1ccc2c(c1)C(=O)c1ccc(NC(C)=O)cc1S2(=O)=O` yielded a logP in series [1] of 3.44. The Revertants/plate in the series with Salmonella typhimurium [2] is 1; with Salmonella typhimurium [3], 2; with Salmonella typhimurium [4] it was 0; in the series on Salmonella typhimurium [5] it was 0; in the series on Salmonella typhimurium [6] it was 0; in the series on Salmonella typhimurium [7], 1. Also, the Revertants/plate in the series on Salmonella typhimurium [8] and in the series on Salmonella typhimurium [9] was 0 each time.

`CC(=O)Nc1ccc2c(c1)S(=O)(=O)c1ccccc1-2`: the Revertants/plate in the series on Salmonella typhimurium [2] was found to be 2; with Salmonella typhimurium [3], 2; in the series with Salmonella typhimurium [4], 0; with Salmonella typhimurium [5], 0; with Salmonella typhimurium [6], 2; in the series with Salmonella typhimurium [8] it was 0. Moreover, the values for the Revertants/plate with Salmonella typhimurium [10] and in the series with Salmonella typhimurium [9] were 0 and 4, respectively.

Compound `CCCc1ccc2c(c1)C(=O)c1ccc(NC(C)=O)cc1S2(=O)=O` had a logP in series [1] of 3.51. Besides, the Revertants/plate in the series with Salmonella typhimurium [2], in the series on Salmonella typhimurium [3], in the series on Salmonella typhimurium [4], in the series with Salmonella typhimurium [5], in the series on Salmonella typhimurium [6] and with Salmonella typhimurium [7] was 0 in each case. Further, the Revertants/plate in the series on Salmonella typhimurium [8] and with Salmonella typhimurium [9] was 0 each time.

For `CC(=O)Nc1ccc2c(c1)S(=O)(=O)c1ccccc1C2=O`, in series [1], the logP was 2.35. Besides, the Revertants/plate in the series with Salmonella typhimurium [11], in the series on Salmonella typhimurium [12], in the series on Salmonella typhimurium [13], in the series with Salmonella typhimurium [14], in the series with Salmonella typhimurium [15] and in the series on Salmonella typhimurium [16] was 0 each time. The Revertants/plate in the series with Salmonella typhimurium [17] and in the series with Salmonella typhimurium [18] was 0 each time.

The logP is the decadic logarithm of the partition coefficient of the neutral form, usually between octanol and water.
